Patent publication US20220226480A1, “LIPID CONJUGATE PREPARED FROM SCAFFOLD MOIETY” (Integrated Nanotherapeutics Inc., priority 2019, published 2022)

Columns and labels:
[1] = Particle size and polydispersity of LNP containing pro-drug (dynamic light scattering); assay type: physicochemical; parameters: Size of LNP: unit not given here; conditions: for Particle Diameter (nm) / Polydispersity index (PDI): LNP containing 10 mol % conjugate, primary PC-lipid DMPC
Procedure: (§1) LNPs were prepared by dissolving 1,2-Distearoyl-sn-glycero-3-phosphocholine (DSPC) or 1,2-dimyristoyl-sn-glycero-3-phosphocholine (DMPC), cholesterol and 1,2-Distearoyl-sn-glycero-3-phosphoethanolamine-Poly(ethylene glycol) (PEG-DSPE) in ethanol. DSPC, DMPC and PEG-DSPE were purchased from Avanti Polar Lipids (Alabaster, Ala.), and cholesterol was obtained from Sigma (St Louis, Mo.).
(§2) Drug-lipid-conjugates INT-D034, INT-D035, INT-D045, INT-D046, INT-D047, INT-D048, INT-D049, INT-D050, INT-D051, INT-D053, INT-D060, INT-D061, INT-D062, INT-D063, INT-D083, INT-D085, INT-D086, INT-D088 and INT-D089 (see FIG. 3 and Example 7 for structures) were dissolved in isopropanol or THF. LNP were prepared by rapidly mixing DSPC or DMPC, cholesterol, drug-lipid conjugate, and PEG-DSPE (in molar ratio of 49/40/10/1) with phosphate-buffered saline (PBS) using a cross-junction mixer. Formulations were dialyzed against PBS to remove residual ethanol. In formulation$ with more than 10 mol % drug-lipid conjugates, the amount of phospholipid or cholesterol was reduced accordingly.
(§3) The physiochemical properties of the LNPs prepared as described above were subsequently characterized. Particle size was determined by dynamic light scattering using a Malvern Zetasizer Nano ZS (Malvern, UK) following buffer exchange into phosphate-buffered saline. Number-weighted size and distribution date was used. Lipid concentrations were determined by measuring total cholesterol using the Cholesterol E enzymatic assay kit from Wako Chemicals USA (Richmond, Va.). The morphology of LNP formulations containing LD-DEX was analyzed by cryogenic-transmission electron microscopy (cryoTEM).

[2] = Encapsulation efficiency / incorporation of pro-drug in LNP; assay type: physicochemical; conditions: for Encapsulation Efficiency (%): LNP containing 10 mol % conjugate, primary PC-lipid DMPC; for % Entrapment: LNP formulations containing pro-drugs (10 mol %, FIG. 6A)
Procedure: as §1, §2, §3

J774.2 = assay: Pro-inflammatory cytokine expression in LPS-stimulated macrophage cell line J774.2 (qRT-PCR); assay type: cell-based; conditions: LNP formulation at doses equivalent to 1, 3 or 10 μM dexamethasone, 24 hours, 10 ng/mL LPS, versus control LNP
Procedure: (§4) The graph depicts the expression of the cytokines IL-1β (top), TNFα (middle) and IL-6 (bottom) after 24 hours of incubation of the cells with the above components at doses equivalent to 1, 3 or 10 μM of dexamethasone, followed by stimulation by 10 ng/mL lipopolysaccharide (LPS) overnight. Cytokine levels were measured by qRT-PCR and data was normalized to cells treated with control LNP without drug-lipid conjugates.
(§5) Cultured macrophage cell lines J774.2 (FIG. 8) and Raw264.7 (FIG. 9A) were incubated with immunostimulant LPS and LNP with or without ricinoleyl-dexamethasone conjugate INT-D034/INT-D035. After 24 hours, cells were harvested and were analyzed for expression of pro-Inflammatory cytokines IL1β, TNFα and IL-6. RNA was isolated from the cells and levels of pro-inflammatory cytokines ILIβ, TNFα and IL6 were determined by qRT-PCR.

Raw264.7 = assay: Pro-inflammatory cytokine expression in LPS-stimulated Raw264.7 cells (qRT-PCR); assay type: cell-based; conditions: LNP formulation at doses equivalent to 1, 3 or 10 μM dexamethasone, 24 hours, 10 ng/mL LPS, versus control LNP
Procedure: as §4, with “IL-10” for “IL-1β”, “LPS” for “lipopolysaccharide (LPS)”
as §4, with “IL-10” for “IL-1β (top), TNFα (middle) and IL-6 (bottom)”, “1” for “1, 3”, “LPS” for “lipopolysaccharide (LPS)”
as §5

CD4+ T cells = assay: Mixed lymphocyte reaction (MLR) assay, BMDCs with allogeneic CD4+ T cells; assay type: cell-based, mice; conditions: LNP containing 10-99 mol % conjugate; BMDCs treated 48 hours, LPS 24 hours; 5:1 or 10:1 T-to-BMDC ratio; 3 days; flow cytometry
Procedure: Bone marrow derived dendritic cells (BMDCs) from C57Bl/6 male mice were first treated with LNP containing various mol % of the dexamethasone or calcitriol conjugates for 48 hours and then activated by incubation with LIPS for 24 hours. They were then harvested and mixed with CD4+ T cells isolated from Balb/cJ male mice (Jackson Laboratories) at 5:1 or 10:1 T-to-BMDC ratio.
Dexamethasone and calcitriol can tolerize antigen presenting cells (APCs). […] Bone marrow derived dendritic cells (BMDCs) from C57BI/6 male mice (Charles River) were first treated with LNP containing various mol % of dexamethasone or calcitriol conjugates for 48 hours and then activated by incubation with LPS for 24 hours. They were then harvested and mixed with CD4+ T cells isolated from Balb/cl male mice (Jackson Laboratories) at 5:1 or 10:1 T-to-BMDC ratio. The levels of T cells proliferation after 3 days were quantified using flow cytometry.

[3] = Dissociation of pro-drugs from LNP after incubation in human plasma (size exclusion chromatography, UPLC); assay type: in vitro ADME; conditions: 10 mol % in LNP, 2 hours, 37° C. (FIG. 6A)
Text: The release of ricinoleyl-dexamethasone conjugates from LNP was examined using an assay involving human plasma, which contains lipoproteins as a lipid sink for lipid exchanges to occur. The plasma lacked active esterases that may digest the ricinoleyl-dexamethasone conjugates, which would in turn prevent the detection and monitoring of intact conjugates.
LNP formulations containing 10-99 mol % INT-D034, INT-D035, INT-D045, INT-D046, INT-0047, INT-D048 or INT-D049, INT-D050, INT-D051, INT-D053, INT-D083, INT-D085, INT-D086 or INT-D089 (see FIG. 3 and Example 7 for structures) were subjected to incubation in human plasma for 0, 2 or 24 hours at 37° C. at 1.2 mM total lipid. Size exclusion chromatography was performed to separate LNP from lipoproteins (1.5×27 cm Sepharose […] size exclusion column). Thirty fractions of 2 mL were collected and three volumes of isopropanol/methanol (1:1 v/v) were added to each fraction.
Drug-lipid conjugates were quantified by ultra high pressure liquid chromatography (UPLC) using a Water® Acquity™ UPLC system equipped with a photodiode array detector (PDA); Empower™ data acquisition software version 2.0 was used (Waters, USA). […] The method was run over 6 minutes with a column temperature of 55° C. and the analyte was measured by monitoring the PDA detector at a wavelength of 239 nm.

[4] = LNP formulations containing pro-drugs (10 mol %, FIG. 6A)
[5] = LNP, pro-drug concentration 10 %
[6] = LNP, pro-drug concentration 20 %
[7] = LNP, pro-drug concentration 80 %
[8] = LNP, pro-drug concentration 90 %
[9] = LNP, pro-drug concentration 99 %
[10] = LNP, pro-drug concentration 60 %

Molecule | Particle Diameter (nm) [1] [nm] | Polydispersity index (PDI) [1] | PdI [1, 4] | Size of LNP [1, 4] | Encapsulation Efficiency (%) [2] [%] | % Entrapment [2] [%] | PdI [1, 5] | Size (nm) [1, 5] [nm] | PdI [1, 6] | Size (nm) [1, 6] [nm] | PdI [1, 7] | Size (nm) [1, 7] [nm] | PdI [1, 9] | Size (nm) [1, 9] [nm] | allogeneic T-cell proliferation (CD4+ T cells) | pro-drug remained in LNP [3] | also measured
CCCCCCCC/C=C\CCCCCCCC(=O)O[C@@H](C/C=C\CCCCCCCCOC(=O)CCC(=O)OCC(=O)[C@@]1(O)[C@H](C)C[C@H]2[C@@H]3CCC4=CC(=O)C=C[C@]4(C)[C@@]3(F)[C@@H](O)C[C@@]21C)CCCCCC [INT-D035, 2-((8S,9R,10S,11S,13S,14S,16R,17R)-9-fluoro-11,17-dihydroxy-10,13,16-trimethyl-3-oxo-6,7,8,9,10,11,12,13,14,15,16,17-dodecahydro-3H-cyclopenta[a]phenanthren-17-yl)-2-oxoethyl ((R,Z)-12-(oleoyloxy)octadec-9-en-1-yl) succinate] | 67 | 0.03 | 0.11 | 64 | 100 | 99 |  |  |  |  |  |  |  |  |  |  | levels of pro-inflammatory cytokines (IL1β, TNFα, IL-6) (J774.2): reduced levels of pro-inflammatory cytokines in a dose-dependent manner; levels of pro-inflammatory cytokines (IL1β, TNFα, IL-6) (Raw264.7): reduced levels of pro-inflammatory cytokines in a dose-dependent manner
CCCCC/C=C\C/C=C\CCCCCCCC(=O)O[C@@H](C/C=C\CCCCCCCCOC(=O)CCC(=O)OCC(=O)[C@@]1(O)[C@H](C)C[C@H]2[C@@H]3CCC4=CC(=O)C=C[C@]4(C)[C@@]3(F)[C@@H](O)C[C@@]21C)CCCCCC [INT-D045, 2-((8S,9R,10S,11S,13S,14S,16R,17R)-9-fluoro-11,17-dihydroxy-10,13,16-trimethyl-3-oxo-6,7,8,9,10,11,12,13,14,15,16,17-dodecahydro-3H-cyclopenta[a]phenanthren-17-yl)-2-oxoethyl ((R,Z)-12-(linoleoyloxy)octadec-9-en-1-yl) succinate] | 68 | 0.03 | 0.03 | 64 | 99 | 100 | 0.076 | 46 | 0.073 | 48 | 0.033 | 69 | 0.045 | 75 | able to suppress allogeneic T-cell proliferation |  | PdI [1, 8]: 0.054; Size (nm) [1, 8]: 74 nm
CCCCCC[C@H](C/C=C\CCCCCCCCOC(=O)CCC(=O)OCC(=O)[C@@]1(O)[C@H](C)C[C@H]2[C@@H]3CCC4=CC(=O)C=C[C@]4(C)[C@@]3(F)[C@@H](O)C[C@@]21C)OC(C)=O [INT-D047, (R,Z)-12-acetoxyoctadec-9-en-1-yl (2-((8S,9R,10S,11S,13S,14S,16R,17R)-9-fluoro-11,17-dihydroxy-10,13,16-trimethyl-3-oxo-6,7,8,9,10,11,12,13,14,15,16,17-dodecahydro-3H-cyclopenta[a]phenanthren-17-yl)-2-oxoethyl) succinate] | 68 | 0.02 | 0.06 | 70 | 100 | 100 |  |  |  |  |  |  |  |  |  | ~40% | 
CCCCC/C=C\C/C=C\CCCCCCCC(=O)OC(CCCCCCCC)C(CCCCCCCC(=O)OCC(=O)[C@@]1(O)[C@H](C)C[C@H]2[C@@H]3CCC4=CC(=O)C=C[C@]4(C)[C@@]3(F)[C@@H](O)C[C@@]21C)OC(=O)CCCCCCC/C=C\C/C=C\CCCCC (stereo partly drawn) [INT-D086, 1-(2-((8S,9R,10S,11S,13S,14S,16R,17R)-9-Fluoro-11,17-dihydroxy-10,13,16-trimethyl-3-oxo-6,7,8,9,10,11,12,13,14,15,16,17-dodecahydro-3H-cyclopenta[a]phenanthren-17-yl)-2-oxoethoxy)-1-oxooctadecane-9,10-diyl (9Z,9′Z,12Z,12′4)-bis(octadeca-9,12-dienoate)] |  |  | 0.08 | 38 |  | 92 | 0.082 | 38 | 0.117 | 35 | 0.028 | 165 | 0.026 | 160 |  | over 90% | PdI [1, 10]: 0.036; Size (nm) [1, 10]: 82 nm
(1R,3S,2)-3-hydroxy-5-(2-((1R,3aS,7aR,E)-1-((R)-6-hydroxy-6-methylheptan-2-yl)-7a-methyloctahydro-4H-inden-4-ylidene)ethylidene)-4-methylenecyclohexyl (R,Z)-12-acetoxyoctadec-9-enoate and (1S,5R,Z)-5-hydroxy-3-(2-((1R,3aS,7aR,E)-1-((R)-6-hydroxy-6-methylheptan-2-yl)-7a-methyloctahydro-4H-inden-4-ylidene)ethylidene)-2-methylenecyclohexyl(RA-12-acetoxyoctadec-9-enoate [INT-D053] |  |  |  |  |  |  | 0.081 | 54 | 0.052 | 56 | 0.029 | 106 | 0.018 | 98 | able to suppress allogeneic T-cell proliferation |  | 
